One assay concerns the target T1, P2X7R point mutant A166G (Homo sapiens, UniProt Q99572, A166G/I21V/M24R/N16P/N25R/Q22R/R20V/S23N/T19I/Y26L).
T1 construct: expressed in transfected cells; host or cells: Xenopus laevis oocytes (cRNA injection)
The experiment in a line: Two-electrode voltage clamp of ATP-evoked currents in Xenopus oocytes. The class given is cell-based. The note with it: EC90 ATP, mean ± S.E.M. (In general: In two-electrode clamp one electrode senses voltage and the other passes current.)

The target in assay [1] is T2, chimeric P2X7R with left flipper 280–284 of P2X4 (Homo sapiens, UniProt Q99572, D280T/I21V/K281R/M24R/N16P/N25R/N284E/Q22R/R20V/S23N/T19I/T282D/T283V/Y26L).
T2 sequence (Q99572 1-595 N16P/T19I/R20V/I21V/Q22R/S23N/M24R/N25R/Y26L/D280T/K281R/T282D/T283V/N284E): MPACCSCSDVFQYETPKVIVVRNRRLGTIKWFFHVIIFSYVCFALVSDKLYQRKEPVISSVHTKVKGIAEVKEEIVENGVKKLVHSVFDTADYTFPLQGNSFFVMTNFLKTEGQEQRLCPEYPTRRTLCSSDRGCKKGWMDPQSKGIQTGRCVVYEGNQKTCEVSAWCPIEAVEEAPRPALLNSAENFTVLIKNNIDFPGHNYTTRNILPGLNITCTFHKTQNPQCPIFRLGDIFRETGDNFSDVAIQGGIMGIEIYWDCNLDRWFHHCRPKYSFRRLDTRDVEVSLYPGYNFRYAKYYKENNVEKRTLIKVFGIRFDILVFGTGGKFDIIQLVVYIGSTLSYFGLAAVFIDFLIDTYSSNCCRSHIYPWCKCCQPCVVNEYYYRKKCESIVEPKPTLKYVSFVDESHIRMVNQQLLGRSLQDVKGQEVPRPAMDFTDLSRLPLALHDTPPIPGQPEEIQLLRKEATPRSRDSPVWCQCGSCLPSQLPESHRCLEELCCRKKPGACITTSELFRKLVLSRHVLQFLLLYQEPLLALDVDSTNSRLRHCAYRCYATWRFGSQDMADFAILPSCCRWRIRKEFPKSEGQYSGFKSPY
The experiment in a line: cell-based.
Protocol: (§1) The production of the correct mutations and absence of coding errors was determined by DNA sequencing (Automated ABI Sequencing Service, University of Leicester, UK). cRNA was generated for the mutants and 50 nl (50 ng) was injected into manually defoliculated stage V Xenopus laevis oocytes using an Inject+Matic microinjector (J.A. Gabay, Inject+Matic, Geneva, Switzerland). Injected oocytes were stored at 16°C in ND96 buffer [in millimolar concentrations, NaCl 96, KCl 2, CaCl2 1.8, MgCl2 1, sodium pyruvate 5, and HEPES 5 (pH 7.6) supplemented with 50 μg/ml gentamycin and 50 μg/ml tetracycline]. Three to seven days postinjection two-electrode voltage clamp recordings were made from oocytes bathed in divalent-free ND96 buffer (in millimolar concentrations, NaCl 96, KCl 2, sodium pyruvate 5, HEPES 5, and 0.1 flufenamic acid, pH 7.6). Oocytes were voltage clamped at a holding potential of −60 mV with a GeneClamp500B amplifier (Molecular Devices).
(§2) Inhibition by the antagonists was expressed as the percentage of the peak current amplitude of an EC90 concentration of ATP recorded before the application of antagonist (ATP gave reproducible responses to ATP in the absence of antagonist). Inhibition curves were fitted with the Hill equation (variable slope) using GraphPad Prism 6 (GraphPad Software, San Diego, CA). […] Individual concentration-response curves were generated for individual experiments, and statistical analysis was carried out on the data generated. […] Data are shown as mean ± S.E.M. In all cases n ≥ 3 for all data points.

The target in another assay is T3, P2X7R point mutant F88A (Homo sapiens, UniProt Q99572, F88A/I21V/M24R/N16P/N25R/Q22R/R20V/S23N/T19I/Y26L).
T3 construct: expressed in transfected cells; host or cells: Xenopus laevis oocytes (cRNA injection)
T3 sequence (Q99572 whole entry N16P/T19I/R20V/I21V/Q22R/S23N/M24R/N25R/Y26L/F88A): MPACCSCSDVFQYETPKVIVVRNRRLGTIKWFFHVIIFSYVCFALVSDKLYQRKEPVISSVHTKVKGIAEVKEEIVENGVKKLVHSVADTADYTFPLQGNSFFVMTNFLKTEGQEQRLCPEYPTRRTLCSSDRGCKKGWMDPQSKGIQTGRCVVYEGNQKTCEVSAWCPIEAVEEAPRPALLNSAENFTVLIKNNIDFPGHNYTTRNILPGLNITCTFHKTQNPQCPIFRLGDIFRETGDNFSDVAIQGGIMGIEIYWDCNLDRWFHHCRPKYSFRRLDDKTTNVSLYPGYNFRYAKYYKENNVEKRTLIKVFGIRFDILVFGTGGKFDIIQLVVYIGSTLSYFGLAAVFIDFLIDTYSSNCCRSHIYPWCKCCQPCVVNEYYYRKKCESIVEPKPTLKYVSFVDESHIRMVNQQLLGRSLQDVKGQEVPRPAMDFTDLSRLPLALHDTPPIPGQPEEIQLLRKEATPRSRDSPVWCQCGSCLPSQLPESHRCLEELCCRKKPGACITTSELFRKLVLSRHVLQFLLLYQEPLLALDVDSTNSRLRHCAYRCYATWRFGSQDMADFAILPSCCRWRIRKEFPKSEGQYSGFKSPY
The experiment in a line: Two-electrode voltage clamp of ATP-evoked currents in Xenopus oocytes. The class given is cell-based. As to conditions: EC90 ATP, mean ± S.E.M.

In a further assay the target is T4, P2X7R point mutant I310A (Homo sapiens, UniProt Q99572, I21V/I310A/M24R/N16P/N25R/Q22R/R20V/S23N/T19I/Y26L).
T4 construct: expressed in transfected cells; host or cells: Xenopus laevis oocytes (cRNA injection)
T4 sequence (Q99572 whole entry N16P/T19I/R20V/I21V/Q22R/S23N/M24R/N25R/Y26L/I310A): as the sequence (Q99572 whole entry N16P/T19I/R20V/I21V/Q22R/S23N/M24R/N25R/Y26L/F88A) above, with A88F, I310A counted along it
The description is as above. The class given is cell-based. The note with it: EC90 ATP, mean ± S.E.M.

For another assay, the target named is T5, P2X7R point mutant Y298A (Homo sapiens, UniProt Q99572, I21V/M24R/N16P/N25R/Q22R/R20V/S23N/T19I/Y26L/Y298A).
T5 construct: expressed in transfected cells; host or cells: Xenopus laevis oocytes (cRNA injection)
T5 sequence (Q99572 whole entry N16P/T19I/R20V/I21V/Q22R/S23N/M24R/N25R/Y26L/Y298A): as the sequence (Q99572 whole entry N16P/T19I/R20V/I21V/Q22R/S23N/M24R/N25R/Y26L/F88A) above, with A88F, Y298A counted along it
The experiment in a line: cell-based.

The target in a further assay is T6, P2X7R point mutant F108C (Homo sapiens, UniProt Q99572, F108C/I21V/M24R/N16P/N25R/Q22R/R20V/S23N/T19I/Y26L).
T6 construct: expressed in transfected cells; host or cells: Xenopus laevis oocytes (cRNA injection)
T6 sequence (Q99572 whole entry N16P/T19I/R20V/I21V/Q22R/S23N/M24R/N25R/Y26L/F108C): as the sequence (Q99572 whole entry N16P/T19I/R20V/I21V/Q22R/S23N/M24R/N25R/Y26L/F88A) above, with A88F, F108C counted along it
The experiment in a line: cell-based.

A further assay addresses T7, P2X7-2Nβ receptor (Homo sapiens, UniProt Q99572, I21V/M24R/N16P/N25R/Q22R/R20V/S23N/T19I/Y26L).
T7 construct: expressed in transfected cells; host or cells: Xenopus laevis oocytes (cRNA injection)
In words: Two-electrode voltage clamp of ATP-evoked currents in Xenopus oocytes. The class given is cell-based. As to conditions: inhibition of EC90 ATP response.

Another assay addresses T8, P2X7R point mutant Y295A (Homo sapiens, UniProt Q99572, I21V/M24R/N16P/N25R/Q22R/R20V/S23N/T19I/Y26L/Y295A).
T8 construct: expressed in transfected cells; host or cells: Xenopus laevis oocytes (cRNA injection)
Described as above. The class given is cell-based. The note with it: EC90 ATP, mean ± S.E.M.

The next assay concerns the target T9, P2X7R point mutant S165F (Homo sapiens, UniProt Q99572, I21V/M24R/N16P/N25R/Q22R/R20V/S165F/S23N/T19I/Y26L).
T9 construct: expressed in transfected cells; host or cells: Xenopus laevis oocytes (cRNA injection)
The description is as above. Type of assay: cell-based. As to conditions: EC90 ATP, mean ± S.E.M.

Another assay addresses T10, P2X7R point mutant E305A (Homo sapiens, UniProt Q99572, E305A/I21V/M24R/N16P/N25R/Q22R/R20V/S23N/T19I/Y26L).
T10 construct: expressed in transfected cells; host or cells: Xenopus laevis oocytes (cRNA injection)
The description is as above. Type of assay: cell-based. As to conditions: EC90 ATP, mean ± S.E.M.

For assay [2], the target named is T11, chimeric P2X7/1 receptor 89–94 (Homo sapiens, UniProt Q99572, I21V/M24R/N16P/N25R/Q22R/R20V/S23N/T19I/T90V/T94V/Y26L).
T11 construct: expressed in transfected cells; host or cells: Xenopus laevis oocytes (cRNA injection)
T11 sequence (Q99572 1-595 N16P/T19I/R20V/I21V/Q22R/S23N/M24R/N25R/Y26L/T90V/T94V): T2 sequence (Q99572 1-595 N16P/T19I/R20V/I21V/Q22R/S23N/M24R/N25R/Y26L/D280T/K281R/T282D/T283V/N284E) with T90V, T94V, T280D, R281K, D282T, V283T, E284N
The assay is described as above. Type of assay: cell-based. As to conditions: for IC50: inhibition of EC90 ATP response.
Protocol: as §1, §2

Numbering of substitutions follows the chain as printed. Values joined by “and” are separate entries in the source; they are usually repeats but may differ in a detail not shown here. Equal values may be shown once. Bounds are passed on as bounds.

T7 sequence (Q99572 whole entry N16P/T19I/R20V/I21V/Q22R/S23N/M24R/N25R/Y26L): as the sequence (Q99572 whole entry N16P/T19I/R20V/I21V/Q22R/S23N/M24R/N25R/Y26L/F88A) above, with A88F counted along it
T1 sequence (Q99572 whole entry N16P/T19I/R20V/I21V/Q22R/S23N/M24R/N25R/Y26L/A166G): as the sequence (Q99572 whole entry N16P/T19I/R20V/I21V/Q22R/S23N/M24R/N25R/Y26L/F88A) above, with A88F, A166G counted along it
T10 sequence (Q99572 whole entry N16P/T19I/R20V/I21V/Q22R/S23N/M24R/N25R/Y26L/E305A): as the sequence (Q99572 whole entry N16P/T19I/R20V/I21V/Q22R/S23N/M24R/N25R/Y26L/F88A) above, with A88F, E305A counted along it
T9 sequence (Q99572 whole entry N16P/T19I/R20V/I21V/Q22R/S23N/M24R/N25R/Y26L/S165F): as the sequence (Q99572 whole entry N16P/T19I/R20V/I21V/Q22R/S23N/M24R/N25R/Y26L/F88A) above, with A88F, S165F counted along it
T8 sequence (Q99572 whole entry N16P/T19I/R20V/I21V/Q22R/S23N/M24R/N25R/Y26L/Y295A): as the sequence (Q99572 whole entry N16P/T19I/R20V/I21V/Q22R/S23N/M24R/N25R/Y26L/F88A) above, with A88F, Y295A counted along it
Protocol for P2X7-2Nβ receptor: as §1, §2
Protocol for P2X7R point mutant A166G: (§3) Injected oocytes were stored at 16°C in ND96 buffer [in millimolar concentrations, NaCl 96, KCl 2, CaCl2 1.8, MgCl2 1, sodium pyruvate 5, and HEPES 5 (pH 7.6) supplemented with 50 μg/ml gentamycin and 50 μg/ml tetracycline]. Three to seven days postinjection two-electrode voltage clamp recordings were made from oocytes bathed in divalent-free ND96 buffer (in millimolar concentrations, NaCl 96, KCl 2, sodium pyruvate 5, HEPES 5, and 0.1 flufenamic acid, pH 7.6). Oocytes were voltage clamped at a holding potential of −60 mV with a GeneClamp500B amplifier (Molecular Devices).
(§4) Inhibition by the antagonists was expressed as the percentage of the peak current amplitude of an EC90 concentration of ATP recorded before the application of antagonist (ATP gave reproducible responses to ATP in the absence of antagonist). Inhibition curves were fitted with the Hill equation (variable slope) using GraphPad Prism 6 (GraphPad Software, San Diego, CA). […] Individual concentration-response curves were generated for individual experiments, and statistical analysis was carried out on the data generated. When shown in figures, the inhibition curves are fitted to the mean normalized data. […] Data are shown as mean ± S.E.M. In all cases n ≥ 3 for all data points.
Protocol for P2X7R point mutant E305A: as §3, §2
Protocol for P2X7R point mutant F108C: as §3, §2
Protocol for P2X7R point mutant F88A: (§5) Additional point mutants were made using the QuikChange mutagenesis kit (Stratagene California, La Jolla, CA). The production of the correct mutations and absence of coding errors was determined by DNA sequencing (Automated ABI Sequencing Service, University of Leicester, UK). cRNA was generated for the mutants and 50 nl (50 ng) was injected into manually defoliculated stage V Xenopus laevis oocytes using an Inject+Matic microinjector (J.A. Gabay, Inject+Matic, Geneva, Switzerland). Injected oocytes were stored at 16°C in ND96 buffer [in millimolar concentrations, NaCl 96, KCl 2, CaCl2 1.8, MgCl2 1, sodium pyruvate 5, and HEPES 5 (pH 7.6) supplemented with 50 μg/ml gentamycin and 50 μg/ml tetracycline]. Three to seven days postinjection two-electrode voltage clamp recordings were made from oocytes bathed in divalent-free ND96 buffer (in millimolar concentrations, NaCl 96, KCl 2, sodium pyruvate 5, HEPES 5, and 0.1 flufenamic acid, pH 7.6). Oocytes were voltage clamped at a holding potential of −60 mV with a GeneClamp500B amplifier (Molecular Devices).
(§6) Inhibition by the antagonists was expressed as the percentage of the peak current amplitude of an EC90 concentration of ATP recorded before the application of antagonist (ATP gave reproducible responses to ATP in the absence of antagonist). […]
Protocol for P2X7R point mutant I310A: as §3, §2
Protocol for P2X7R point mutant S165F: as §3, §4
Protocol for P2X7R point mutant Y295A: as §5, §6
Protocol for P2X7R point mutant Y298A: as §3, §4

Turning to `COc1ccc(CC(=O)NC(N=C(NC#N)Nc2cccc3ncccc23)C(C)(C)C)cc1OC` (stereo not drawn) [A740003, N-[1-[[(cyanoamino)(5-quinolinylamino)methylene]amino]-2,2-dimethylpropyl]-3,4-dimethoxybenzeneacetamide], the IC50 was 316 nM at P2X7R point mutant A166G; 794 nM in [1]; 5010 nM at P2X7R point mutant F88A; 126 nM at P2X7R point mutant I310A; 2000 nM on P2X7R point mutant Y298A; 1000 nM against P2X7R point mutant F108C. Further, the IC50 at P2X7-2Nβ receptor is 79.4 nM; against P2X7R point mutant Y295A, 158 nM; against P2X7R point mutant S165F, 200 nM; at P2X7R point mutant E305A, 25.1 nM; in assay [2] (chimera 89–94) it was 251 nM. The “fold decrease in antagonist sensitivity/affinity relative to P2X7-2Nβ” value in assay [2] (chimera 89–94) is on record as roughly 3 fold.
As for `Cl.Clc1cccc(-c2nnnn2Cc2cccnc2)c1Cl.O` [A438079, 3-(5-(2,3-dichlorophenyl)-1H-tetrazol-1-yl)methyl pyridine hydrochloride hydrate], the IC50 is 3980 nM against P2X7R point mutant A166G; 31600 nM in assay [1]; greater than 100000 nM on P2X7R point mutant F88A; 6310 nM on P2X7R point mutant I310A; 6310 nM against P2X7R point mutant Y298A; 10000 nM on P2X7R point mutant F108C. Further, the IC50 against P2X7-2Nβ receptor was 933 nM and 1000 nM; against P2X7R point mutant Y295A, 2000 nM; against P2X7R point mutant S165F it was 7940 nM; against P2X7R point mutant E305A it was 200 nM; in assay [2] (chimera 89–94), greater than 100000 nM. Also, the inhibition at 10 µM in assay [2] (P2X7, read-out: inhibition of ATP responses) is 15.7%.

What is called IC50 is the concentration at which inhibition is half-maximal. One may read the inhibition as the change of the read-out against control, counted positive when it falls.

The values above are taken from PMC5896373 (Molecular Pharmacology, 2018).
